Source: ChEMBL document CHEMBL3045446, “In vitro antimicrobial and antimycobacterial activity of some chalcones and their derivatives” (2013)
In brackets after ≈: the same amount, converted by molar mass.

Assays:
Assay type in all cases: functional
Pseudomonas aeruginosa [1] = assay: Antimicrobial activity against Pseudomonas aeruginosa MTCC 741 assessed as growth inhibition after 24 hr by agar streak dilution method; settings: MTCC 741, 24 h
Salmonella typhi [2] = assay: Antimicrobial activity against Salmonella enterica subsp. enterica serovar Typhi MTCC 733 assessed as diameter of growth inhibition zone after 24 hr
Aspergillus clavatus [3] = assay: Antimicrobial activity against Aspergillus clavatus MTCC 1323 assessed as diameter of growth inhibition zone after 48 hr
Aspergillus niger [4] = assay: Antimicrobial activity against Aspergillus niger MTCC 282 assessed as diameter of growth inhibition zone after 48 hr
Aspergillus niger [5] = assay: Antimicrobial activity against Aspergillus niger MTCC 282 assessed as growth inhibition after 48 hr by agar streak dilution method; settings: MTCC 282, 48 h
Proteus vulgaris [6] = assay: Antimicrobial activity against Proteus vulgaris MTCC 1771 assessed as diameter of growth inhibition zone after 24 hr
Shigella flexneri [7] = assay: Antimicrobial activity against Shigella flexneri MTCC1457 assessed as growth inhibition after 24 hr by agar streak dilution method; settings: MTCC1457, 24 h
Shigella flexneri [8] = assay: Antimicrobial activity against Shigella flexneri MTCC1457 assessed as diameter of growth inhibition zone after 24 hr
Candida albicans [9] = assay: Antimicrobial activity against Candida albicans MTCC 183 assessed as diameter of growth inhibition zone after 48 hr
Aspergillus fumigatus [10] = assay: Antimicrobial activity against Aspergillus fumigatus MTCC 343 assessed as growth inhibition after 48 hr by agar streak dilution method; settings: MTCC 343, 48 h
Escherichia coli [11] = assay: Antimicrobial activity against Escherichia coli MTCC 739 assessed as growth inhibition after 24 hr by agar streak dilution method; settings: MTCC 739, 24 h
Proteus vulgaris [12] = assay: Antimicrobial activity against Proteus vulgaris MTCC 1771 assessed as growth inhibition after 24 hr by agar streak dilution method; settings: MTCC 1771, 24 h
Salmonella typhi [13] = assay: Antimicrobial activity against Salmonella enterica subsp. enterica serovar Typhi MTCC 733 assessed as growth inhibition after 24 hr by agar streak dilution method; settings: MTCC 733, 24 h
Pseudomonas aeruginosa [14] = assay: Antimicrobial activity against Pseudomonas aeruginosa MTCC 741 assessed as diameter of growth inhibition zone after 24 hr
Aspergillus clavatus [15] = assay: Antimicrobial activity against Aspergillus clavatus MTCC 1323 assessed as growth inhibition after 48 hr by agar streak dilution method; settings: MTCC 1323, 48 h
Bacillus cereus [16] = assay: Antimicrobial activity against Bacillus cereus MTCC 430 assessed as diameter of growth inhibition zone after 24 hr
[17] = tested on: Mycobacterium tuberculosis; assay: Antituberculosis activity against Mycobacterium tuberculosis H37Rv assessed as growth inhibition after 12 to 28 days by L-J MIC method; settings: for MIC: Mycobacterium tuberculosis, H37Rv
Bacillus cereus [18] = assay: Antimicrobial activity against Bacillus cereus MTCC 430 assessed as growth inhibition after 24 hr by agar streak dilution method; settings: MTCC 430, 24 h
Staphylococcus aureus [19] = assay: Antimicrobial activity against Staphylococcus aureus MTCC 96 assessed as diameter of growth inhibition zone after 24 hr
Escherichia coli [20] = assay: Antimicrobial activity against Escherichia coli MTCC 739 assessed as diameter of growth inhibition zone after 24 hr
Klebsiella pneumoniae [21] = assay: Antimicrobial activity against Klebsiella pneumoniae MTCC 109 assessed as diameter of growth inhibition zone after 24 hr
Staphylococcus aureus [22] = assay: Antimicrobial activity against Staphylococcus aureus MTCC 96 assessed as growth inhibition after 24 hr by agar streak dilution method; settings: MTCC 96, 24 h
Klebsiella pneumoniae [23] = assay: Antimicrobial activity against Klebsiella pneumoniae MTCC 109 assessed as growth inhibition after 24 hr by agar streak dilution method; settings: MTCC 109, 24 h
Aspergillus fumigatus [24] = assay: Antimicrobial activity against Aspergillus fumigatus MTCC 343 assessed as diameter of growth inhibition zone after 48 hr
Candida albicans [25] = assay: Antimicrobial activity against Candida albicans MTCC 183 assessed as growth inhibition after 48 hr by agar streak dilution method; settings: MTCC 183, 48 h

Structure (SMILES) | MIC (Pseudomonas aeruginosa [1]) [µg/mL] | diameter of the inhibition zone (DIZ) (Salmonella typhi [2]) [mm] | diameter of the inhibition zone (DIZ) (Aspergillus clavatus [3]) [mm] | diameter of the inhibition zone (DIZ) (Aspergillus niger [4]) [mm] | MIC (Aspergillus niger [5]) [µg/mL] | diameter of the inhibition zone (DIZ) (Proteus vulgaris [6]) [mm] | MIC (Shigella flexneri [7]) [µg/mL] | diameter of the inhibition zone (DIZ) (Shigella flexneri [8]) [mm] | diameter of the inhibition zone (DIZ) (Candida albicans [9]) [mm] | MIC (Aspergillus fumigatus [10]) [µg/mL] | MIC (Escherichia coli [11]) [µg/mL] | MIC (Proteus vulgaris [12]) [µg/mL] | MIC (Salmonella typhi [13]) [µg/mL] | diameter of the inhibition zone (DIZ) (Pseudomonas aeruginosa [14]) [mm] | MIC (Aspergillus clavatus [15]) [µg/mL] | diameter of the inhibition zone (DIZ) (Bacillus cereus [16]) [mm] | growth inhibition (GI) [17] [%] | MIC [17] [µg/mL] | MIC (Bacillus cereus [18]) [µg/mL] | diameter of the inhibition zone (DIZ) (Staphylococcus aureus [19]) [mm] | further results
COc1ccc(-c2cc(-c3ccc(Nc4cc(=O)oc5ccccc45)cc3)nc(N)c2C#N)cc1OC | 6.25 (≈ 12.7 µM) | 27 | 25 | 27 | 6.25 (≈ 12.7 µM) | 25 | 6.25 (≈ 12.7 µM) | 27 | 27 | 3.12 (≈ 6.36 µM) | 6.25 (≈ 12.7 µM) | 6.25 (≈ 12.7 µM) | 3.12 (≈ 6.36 µM) | 25 | 6.25 (≈ 12.7 µM) | 26 | 99 | 12.5 (≈ 25.5 µM) | 6.25 (≈ 12.7 µM) | 29 | diameter of the inhibition zone (DIZ) (Escherichia coli [20]): 26 mm; diameter of the inhibition zone (DIZ) (Klebsiella pneumoniae [21]): 28 mm; MIC (Staphylococcus aureus [22]): 3.12 µg/mL (≈ 6.36 µM); MIC (Klebsiella pneumoniae [23]): 3.12 µg/mL (≈ 6.36 µM); diameter of the inhibition zone (DIZ) (Aspergillus fumigatus [24]): 28 mm; MIC (Candida albicans [25]): 6.25 µg/mL (≈ 12.7 µM)
COc1ccc(C2CC(c3ccc(Nc4cc(=O)oc5ccccc45)cc3)=NN2C(C)=O)cc1OC (configuration not stated) | 50 (≈ 103 µM) | 21 | 20 | 23 | 25 (≈ 51.7 µM) | 20 | 12.5 (≈ 25.9 µM) | 23 | 22 | 50 (≈ 103 µM) | 25 (≈ 51.7 µM) | 50 (≈ 103 µM) | 25 (≈ 51.7 µM) | 20 | 50 (≈ 103 µM) | 18 | 98 | 100 (≈ 207 µM) | 50 (≈ 103 µM) | 20 | diameter of the inhibition zone (DIZ) (Escherichia coli [20]): 21 mm; diameter of the inhibition zone (DIZ) (Klebsiella pneumoniae [21]): 22 mm; MIC (Staphylococcus aureus [22]): 25 µg/mL (≈ 51.7 µM); MIC (Klebsiella pneumoniae [23]): 25 µg/mL (≈ 51.7 µM); diameter of the inhibition zone (DIZ) (Aspergillus fumigatus [24]): 19 mm; MIC (Candida albicans [25]): 25 µg/mL (≈ 51.7 µM)
CC(=O)N1N=C(c2ccc(Nc3cc(=O)oc4ccccc34)cc2)CC1c1ccc(F)cc1 (configuration not stated) | 50 (≈ 113 µM) | 18 | 20 | 20 | 25 (≈ 56.6 µM) | 21 | 25 (≈ 56.6 µM) | 20 | 16 | 25 (≈ 56.6 µM) | 50 (≈ 113 µM) | 25 (≈ 56.6 µM) | 50 (≈ 113 µM) | 17 | 50 (≈ 113 µM) | 22 | 98 | 100 (≈ 227 µM) | 12.5 (≈ 28.3 µM) | 23 | diameter of the inhibition zone (DIZ) (Escherichia coli [20]): 20 mm; diameter of the inhibition zone (DIZ) (Klebsiella pneumoniae [21]): 23 mm; MIC (Staphylococcus aureus [22]): 12.5 µg/mL (≈ 28.3 µM); MIC (Klebsiella pneumoniae [23]): 12.5 µg/mL (≈ 28.3 µM); diameter of the inhibition zone (DIZ) (Aspergillus fumigatus [24]): 22 mm; MIC (Candida albicans [25]): 50 µg/mL (≈ 113 µM)
CC(=O)N1N=C(c2ccc(Nc3cc(=O)oc4ccccc34)cc2)CC1c1ccc(Cl)cc1 (configuration not stated) | 100 (≈ 218 µM) | 18 | 15 | 16 | 100 (≈ 218 µM) | 19 | 50 (≈ 109 µM) | 20 | 19 | 50 (≈ 109 µM) | 100 (≈ 218 µM) | 50 (≈ 109 µM) | 50 (≈ 109 µM) | 14 | 100 (≈ 218 µM) | 17 | 97 | 250 (≈ 546 µM) | 100 (≈ 218 µM) | 19 | diameter of the inhibition zone (DIZ) (Escherichia coli [20]): 15 mm; diameter of the inhibition zone (DIZ) (Klebsiella pneumoniae [21]): 21 mm; MIC (Staphylococcus aureus [22]): 50 µg/mL (≈ 109 µM); MIC (Klebsiella pneumoniae [23]): 50 µg/mL (≈ 109 µM); diameter of the inhibition zone (DIZ) (Aspergillus fumigatus [24]): 17 mm; MIC (Candida albicans [25]): 50 µg/mL (≈ 109 µM)
COc1ccc(-c2cc(-c3ccc(Nc4cc(=O)oc5ccccc45)cc3)nc(N)n2)cc1 | 12.5 (≈ 28.6 µM) | 19 | 23 | 23 | 12.5 (≈ 28.6 µM) | 24 | 50 (≈ 115 µM) | 19 | 24 | 25 (≈ 57.3 µM) | 25 (≈ 57.3 µM) | 12.5 (≈ 28.6 µM) | 50 (≈ 115 µM) | 21 | 12.5 (≈ 28.6 µM) | 21 | 98 | 62.5 (≈ 143 µM) | 12.5 (≈ 28.6 µM) | 22 | diameter of the inhibition zone (DIZ) (Escherichia coli [20]): 22 mm; diameter of the inhibition zone (DIZ) (Klebsiella pneumoniae [21]): 20 mm; MIC (Staphylococcus aureus [22]): 12.5 µg/mL (≈ 28.6 µM); MIC (Klebsiella pneumoniae [23]): 25 µg/mL (≈ 57.3 µM); diameter of the inhibition zone (DIZ) (Aspergillus fumigatus [24]): 20 mm; MIC (Candida albicans [25]): 25 µg/mL (≈ 57.3 µM)
N#Cc1c(-c2ccc(Cl)cc2)cc(-c2ccc(Nc3cc(=O)oc4ccccc34)cc2)nc1N | 50 (≈ 108 µM) | 24 | 21 | 20 | 25 (≈ 53.8 µM) | 26 | 12.5 (≈ 26.9 µM) | 23 | 26 | 12.5 (≈ 26.9 µM) | 25 (≈ 53.8 µM) | 6.25 (≈ 13.4 µM) | 12.5 (≈ 26.9 µM) | 19 | 25 (≈ 53.8 µM) | 21 | 98 | 100 (≈ 215 µM) | 25 (≈ 53.8 µM) | 24 | diameter of the inhibition zone (DIZ) (Escherichia coli [20]): 21 mm; diameter of the inhibition zone (DIZ) (Klebsiella pneumoniae [21]): 25 mm; MIC (Staphylococcus aureus [22]): 12.5 µg/mL (≈ 26.9 µM); MIC (Klebsiella pneumoniae [23]): 6.25 µg/mL (≈ 13.4 µM); diameter of the inhibition zone (DIZ) (Aspergillus fumigatus [24]): 24 mm; MIC (Candida albicans [25]): 6.25 µg/mL (≈ 13.4 µM)
Nc1nc(-c2ccc(Nc3cc(=O)oc4ccccc34)cc2)cc(-c2ccccc2Br)n1 | 100 (≈ 206 µM) | 20 | 17 | 20 | 50 (≈ 103 µM) | 17 | 50 (≈ 103 µM) | 19 | 23 | 50 (≈ 103 µM) | 100 (≈ 206 µM) | 100 (≈ 206 µM) | 50 (≈ 103 µM) | 15 | 50 (≈ 103 µM) | 16 | 98 | 100 (≈ 206 µM) | 100 (≈ 206 µM) | 17 | diameter of the inhibition zone (DIZ) (Escherichia coli [20]): 16 mm; diameter of the inhibition zone (DIZ) (Klebsiella pneumoniae [21]): 18 mm; MIC (Staphylococcus aureus [22]): 100 µg/mL (≈ 206 µM); MIC (Klebsiella pneumoniae [23]): 50 µg/mL (≈ 103 µM); diameter of the inhibition zone (DIZ) (Aspergillus fumigatus [24]): 19 mm; MIC (Candida albicans [25]): 25 µg/mL (≈ 51.5 µM)
